The results in this text go back to US20220288048A1, “PIMAVANSERIN FOR TREATING SCHIZOPHRENIA OR FOR TREATING PSYCHOSIS SECONDARY TO NEURODEGENERATIVE DISORDERS OR DEPRESSIVE DISORDER” (ACADIA Pharmaceuticals Inc., priority 2019, published 2022).

The structures appear in SMILES notation. “Also recorded” adds a separate entry of the source.

Data set [1] can be described thus: Plasma levels of risperidone in scPCP and ARS-treated mice (mass spectrometer). Format: in vivo. The note with it: 3 mg/kg pimavanserin with 0.2 mg/kg risperidone. On the procedure:
(§1) The behavioral assay, ARS protocol, and scPCP-treatment as described in Example 2 were used. To test the effect of atypical APD and pimavanserin, alone or as con-administration, in scPCP-treated mice (N=10 pairs of mice per group) given 2 h ARS, risperidone (“Risp”) was administered as 0.2 mg/kg or 0.4 mg/kg ip; olanzapine (“Olan”) as 1.0 mg/kg ip; aripiprazole (“Aripi”) as 1.0 mg/kg ip; and pimavanserin (“Pim”) as 3 mg/kg ip to scPCP+ARS(2h) treated male C57BL/6J mice 45 minutes prior to the commencement of the social interaction task in the 10 min social interaction test. Plasma levels of risperidone were measured using a Triple Quad 6500+ mass spectrometer.

For data set [2], the system named is subjects with schizophrenia who have predominant negative symptoms. Nature of the data set: Phase 2, 26-week placebo-controlled study of adjunctive pimavanserin for negative symptoms of schizophrenia: efficacy. It counts as in vivo, human. The conditions noted are these: for NSA-16 total score vs placebo, effect size: Week 26; for NSA-16 total score, change from Baseline to Week 26: placebo −8.5. On the procedure: (§2) This study is conducted as a Phase 2, 26-week, randomized, double-blind, placebo-controlled, multicenter, multinational outpatient study in subjects with schizophrenia who have predominant negative symptoms while on adequate treatment with an antipsychotic. Schizophrenia is defined by the Diagnostic and Statistical Manual of Mental Disorders, Fifth Edition (DSM-5), confirmed by a customized module of the Structured Clinical Interview for DSM-5, Clinical Trials Version (SCID-5-CT). This study enrolls approximately 403 subjects with predominant negative symptoms of schizophrenia. In the study, patients were randomized to receive either pimavanserin or placebo added to their current background antipsychotic treatment for 26 weeks in duration. At baseline all patients were started on a daily dose of 20 mg of pimavanserin or placebo with dose adjustments allowed up to 34 mg or down to 10 mg during the first eight weeks of treatment. Following week eight no further dose modifications were allowed for the remaining 18 weeks in the study.
The daily dose of the main antipsychotic must remain stable and may not be changed from Screening through the duration of the study. […] At the Weeks 2, 4, and 8 visits, the daily dose of pimavanserin may remain at 20 mg or it may be either increased to 34 mg (for symptom improvement) or decreased to 10 mg daily (if the 20 mg dose is not well tolerated). After the Week 8 visit, no study drug dose changes may be made. Clinic visits occurring after Baseline will be conducted at Weeks 2, 4, 8, 14, 20, and 26 (End-of-Study [EOS]/Early Termination [ET] visit).
The test products are pimavanserin 10 mg and 17 mg tablets or matching placebo. Daily doses of pimavanserin to be studied are 10 mg (provided as 1×10 mg pimavanserin tablet and 1× matching placebo); 20 mg (2×10 mg pimavanserin tablets); or 34 mg (2×17 mg pimavanserin tablets); or matching placebo (2× placebo tablets); delivered by mouth. Seventeen (17) mg of the active moiety is dosed as 20 mg of the salt pimavanserin tartrate; 10 mg of the active moiety is dosed as 11.8 mg of the salt pimavanserin tartrate. The duration of participation for individual subjects will be up to approximately 34 weeks.
Primary Efficacy Endpoint is the change from Baseline to Week 26 in the Negative Symptom Assessment-16 (NSA-16) total score.
Secondary Endpoints Key Secondary Endpoint is the change from Baseline to Week 26 in the Personal and Social Performance Scale (PSP) score.

Data set [3] has the same test system. Nature of the data set: Phase 2, 26-week adjunctive pimavanserin study: safety. It counts as in vivo, human. The conditions noted are these: 26-week study. On the procedure: as §2, with “Following week eight no further dose modifications were allowed for the remaining 18 weeks in the study.” left out
Safety will be evaluated by analyses of adverse events, vital signs, ECGs, physical examination results, and clinical laboratory tests (including urinalysis), and the Abnormal Involuntary Movement Scale (AIMS), the Barnes Akathisia Rating Scale (BARS), the Simpson-Angus Extrapyramidal Side Effects Scale (SAS), and the Columbia Suicide Severity Rating Scale (C-SSRS).

The test system of data set [4] is scPCP-treated C57BL/6J mice. Put plainly: 10-min social interaction test in scPCP-treated mice. Format: in vivo. The note with it: pimavanserin 3 and 6 mg/kg ip, alone. On the procedure: Negative symptoms model: The behavioral assay utilized to assess negative symptoms was social interaction (SI) task.
(§3) Briefly, mice were habituated to the test arena (i.e., the NOR box) for 30 minutes prior to the test day. Pairs of mice, unfamiliar to each other, received either the same treatment (e.g., vehicle and vehicle; N=10 pairs) or different treatments (e.g., vehicle; N=10 and phencyclidine (PCP) 10 mg/kg; N=10). After washout, they were placed in the test arena together for 10 minutes. A heavy object made of Plexiglas or metal was placed in the center of the test arena to quantify the time and nature of interaction of the test animals with an unfamiliar object or an unfamiliar animal. After the 10 min test phase, the object and the arena were cleaned with 70% ethanol to remove any olfactory trails. Behavior was recorded on video for subsequent blind scoring.
(§4) The following four behaviors were scored for each animal: • a) Sniffing: A normal mouse engages in sniffing the con-specific mouse's body, including the anogenital area • b) Following: A normal mouse pursues a con-specific mouse around the arena • c) Avoiding: A normal mouse avoids the con-specific mouse and move away from a pursuing mouse if approached • d) Object Exploration: A normal mouse explores the object that is placed in the center of the test arena.
scPCP treatment involved intraperitoneal injection (ip) of 10 mg/kg PCP to male C57BL/6J mice, twice daily (bid) for 7 days, followed by 7 days washout. To test the effect of atypical APD or pimavanserin in scPCP-treated mice (N=10 pairs of mice per group), risperidone was administered as 0.05 mg/kg ip or 0.2 mg/kg ip; and pimavanserin was administered as 3 mg/kg ip or 6 mg/kg ip to scPCP-treated mice 45 minutes prior to the commencement of the social interaction task in the 10 min social interaction test.

Data set [5] has as its system scPCP+ARS(2h) treated male C57BL/6J mice. Nature of the data set: 10-min social interaction test in scPCP-treated mice given 2 h acute restraint stress (treatment-resistant model). Format: in vivo. The conditions noted are these: risperidone 0.2, olanzapine 1, aripiprazole 1 or pimavanserin 3 mg/kg ip alone, 45 min prior to test. On the procedure:
as §3, §4
Acute restraint stress (ARS) protocol: Mice were assigned to one of two groups: either the control group (non-stress) or the stress group. Generally, mice of the stress group were restrained in well-ventilated 50 mL tubes. After the restraint period of 1 or 2 hours, the mice were transferred into a clean animal housing cage for 1-hour interval and thereafter went through the first social interaction test (different mice are used to test different groups).
Treatment resistant animal model: To establish this model, Acute restraint stress (ARS) was added to scPCP treatment. Two groups (vehicle+ARS; scPCP+ARS) and their controls (vehicle+saline; scPCP+saline) were used. ARS was applied for 1 or 2 hours and tested on SI 1 hour post-ARS.
as §1

As for `CC(C)COc1ccc(CNC(=O)N(Cc2ccc(F)cc2)C2CCN(C)CC2)cc1` [Pimavanserin, N-(4-Fluorophenylmethyl)-N-(1-methylpiperidin-4-yl)-N′-(4-(2-methylpropyloxy)phenylmethyl)carbamide], the “Pharmacokinetic effect of pimavanserin on risperidone drug levels” value in data set [1] is given as “not due to a pharmacokinetic effect”. Besides, the “NSA-16 total score vs placebo, effect size” value in data set [2] (34 mg dose) is reported as 0.34; in data set [2] (all pimavanserin doses) it was 0.21. Further, the “NSA-16 total score, change from Baseline to Week 26” value is given as −10.4 in data set [2] (all pimavanserin doses (10-34 mg daily), added to background antipsychotic) and −11.6 in data set [2] (patients who received the 34 mg fixed dose after week 8 (n=107)). Also, the “Personal and Social Performance Scale, change from Baseline to Week 26” value in data set [2] (key secondary endpoint, placebo 8.1) was 8.1. For the same compound, the “Vital signs, weight, metabolic syndrome, and extrapyramidal symptoms compared to adjunctive placebo” value in data set [3] is “did not result in clinically significant differences”. Also, the “Rate of adverse events” value in data set [3] (adjunctive pimavanserin) was 40%. In addition, in data set [4], the “Restoration of SI deficit in scPCP-treated mice” value is given as “did not restore SI deficit”. Besides, the “Able to restore sniffing or decrease avoidance (SI deficit), drug alone” value in data set [5] is “Neither; also recorded: ineffective”.
